Measurements taken from paper PMC9230573 (Frontiers in Pharmacology, 2022).
Where “and” joins values, the source holds several entries; their conditions need not be identical. Identical values can stand only once. Entries after “also recorded” stand apart in the source; their conditions may differ. Where a SMILES comes first, the peptide text is derived from it. Bridges are numbered along the chain shown (N, C = ends).

Columns and labels:
rat PNL pain model = conditions: in vivo
rat CCI pain model = conditions: in vivo
rat α3β2 nAChR = rat α3β2 nAChR (Rattus norvegicus, UniProt P04757+P12390); assay: cell-based
[1] = tested on: L-type (Cav1.2) calcium channels; assay type: cell-based
[2] = tested on: voltage-gated potassium channels in DRG neurons; assay type: cell-based, rat
[3] = tested on: GABABR-coupled Cav2.2 channels (human GABAB receptor R1 + R2 subunits and Cav2.2); assay type: cell-based; conditions: SEM
[4] = tested on: T-type (Cav3.2) calcium channels; assay type: cell-based
[5] = tested on: voltage-gated sodium channels in DRG neurons; assay type: cell-based, rat
locomotor activity = conditions: rat, in vivo

Sequence of rat α3β2 nAChR (P04757 26-499 limits assumed): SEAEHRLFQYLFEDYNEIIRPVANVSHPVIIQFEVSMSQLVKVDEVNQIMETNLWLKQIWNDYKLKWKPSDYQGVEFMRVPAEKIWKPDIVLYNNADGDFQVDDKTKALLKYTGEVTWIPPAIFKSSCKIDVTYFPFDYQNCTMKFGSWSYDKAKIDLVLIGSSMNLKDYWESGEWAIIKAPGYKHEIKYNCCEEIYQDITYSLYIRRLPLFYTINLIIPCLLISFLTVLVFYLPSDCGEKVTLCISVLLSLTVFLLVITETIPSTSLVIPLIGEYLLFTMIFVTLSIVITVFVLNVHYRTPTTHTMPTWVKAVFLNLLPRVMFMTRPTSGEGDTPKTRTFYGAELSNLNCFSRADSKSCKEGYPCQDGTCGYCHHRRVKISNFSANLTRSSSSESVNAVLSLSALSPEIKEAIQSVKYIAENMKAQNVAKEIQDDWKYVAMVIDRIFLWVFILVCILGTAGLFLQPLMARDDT
Sequence of rat α3β2 nAChR (P12390 25-500 limits assumed): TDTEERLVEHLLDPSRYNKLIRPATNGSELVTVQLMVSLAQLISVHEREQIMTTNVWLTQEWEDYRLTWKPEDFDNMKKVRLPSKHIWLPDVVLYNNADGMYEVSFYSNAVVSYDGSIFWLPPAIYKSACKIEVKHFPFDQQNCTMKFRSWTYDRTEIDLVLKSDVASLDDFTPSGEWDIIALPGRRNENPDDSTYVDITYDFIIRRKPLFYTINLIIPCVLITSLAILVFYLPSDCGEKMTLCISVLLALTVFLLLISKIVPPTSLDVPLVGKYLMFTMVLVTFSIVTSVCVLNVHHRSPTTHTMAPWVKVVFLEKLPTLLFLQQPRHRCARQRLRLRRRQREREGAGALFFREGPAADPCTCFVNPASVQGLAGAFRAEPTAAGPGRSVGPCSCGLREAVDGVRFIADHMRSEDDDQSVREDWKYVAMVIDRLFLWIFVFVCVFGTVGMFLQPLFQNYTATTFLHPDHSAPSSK

## Vc1.1 [reference compound]
Rat PNL pain model
  elevation value of the pain threshold: 7.4 g
  increased mechanical pressure threshold (elevation value of pain threshold): 71.2 g
Rat CCI pain model
  pain threshold elevation percentage: 44.3 ± 9.1% and 26.1 ± 10.0%

## CC[C@H](C)[C@@H]1NC(=O)[C@@H]2CCCN2C(=O)[C@@H]2CSSC[C@H](NC(=O)[C@@H](N)CC(N)=O)C(=O)N[C@@H](CSSC[C@@H](C(N)=O)NC(=O)[C@H](CC(N)=O)NC(=O)[C@H](Cc3ccccc3)NC(=O)[C@H](CCCNC(=N)N)NC(=O)[C@H](CO)NC(=O)[C@H](Cc3ccc(O)cc3)NC(=O)[C@H](CC(=O)O)NC1=O)C(=O)N[C@@H](CCSC)C(=O)N[C@@H](Cc1ccccc1)C(=O)N[C@@H](Cc1c[nH]cn1)C(=O)N[C@@H]([C@@H](C)O)C(=O)N2 [Vt1.27] (H-NCCMFHTCPIDYSRFNC-NH2; disulfide 2-8, 3-17)
Rat α3β2 nAChR
  Hillslope: -0.484
  IC50: 1160 nM
[1]
  inhibition of L-type calcium channels (in words): did not significantly inhibit
[2]
  inhibition of voltage-gated potassium channels (in words): inactive; also recorded: did not significantly inhibit
Rat PNL pain model
  elevation value of the pain threshold: 37.6 g
  pain threshold: 126.2 ± 9.16 g and 138.8 ± 23.6 g and 165.0 ± 21.4 g
[3]
  percent inhibition of IBa at GABABR-coupled Cav2.2 channels: 19 ± 2%
Rat CCI pain model
  increase in pain threshold: 67.2 g and 40.0 g
  pain threshold elevation percentage: 56.4 ± 14.9% and 33.3 ± 15.3%
[4]
  inhibition of T-type calcium channels (in words): did not significantly inhibit
[5]
  inhibition of voltage-gated sodium channels (in words): inactive; also recorded: did not significantly inhibit
Locomotor activity
  effect on locomotor activity (in words): did not affect locomotor activity
